Consider one molecule from ChEMBL document CHEMBL6134892, “Discovery and Evaluation of DA-302168S as an Efficacious Oral Small-Molecule Glucagon-Like Peptide-1 Receptor Agonist” (J Med Chem, 2025).

As a reminder, the EC50 is the concentration at which the effect is half-maximal. As a reminder, the inhibition is the change of the read-out against control, counted positive when it falls. As usually defined, the IC50 is the concentration that inhibits the measured activity by half. In general, Cmax refers to the highest concentration seen after dosing. As a reminder, the AUC(0-t) is exposure summed from dosing to a finite time, without extrapolation to infinity. By Tmax is commonly meant the time from dosing to the highest level. For orientation: bioavailability means dose-corrected exposure relative to a reference, in per cent.

For series [1], the target named is Glucagon-like peptide 1 receptor (Homo sapiens, UniProt P43220). The experiment in a line: Agonist activity at human GLP-1R expressed in HEK293 cells coexpressing CRE LUC incubated for 5 hrs by luciferase based microplate reader analysis. Type of series: functional, cell-based.
Glucagon-like peptide 1 receptor, sequence (P43220 whole entry): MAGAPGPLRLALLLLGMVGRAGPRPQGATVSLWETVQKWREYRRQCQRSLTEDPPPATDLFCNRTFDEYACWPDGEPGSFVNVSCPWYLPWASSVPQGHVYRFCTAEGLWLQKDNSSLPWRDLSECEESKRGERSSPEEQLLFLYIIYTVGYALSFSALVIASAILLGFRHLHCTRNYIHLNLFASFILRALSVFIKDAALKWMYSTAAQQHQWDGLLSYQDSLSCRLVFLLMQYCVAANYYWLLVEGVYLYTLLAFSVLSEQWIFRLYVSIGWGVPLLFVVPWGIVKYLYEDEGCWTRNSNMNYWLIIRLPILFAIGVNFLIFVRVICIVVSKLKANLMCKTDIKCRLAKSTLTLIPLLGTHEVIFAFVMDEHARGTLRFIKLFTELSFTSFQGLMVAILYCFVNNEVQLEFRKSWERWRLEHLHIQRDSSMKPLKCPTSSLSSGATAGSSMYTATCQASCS
Another series has as its target hERG (KCNH2) (Homo sapiens, UniProt Q12809). Description: Inhibition of human ERG at 30 uM by whole-cell patch clamp technique relative to control. Type of series: toxicity.
Series [2] can be described thus: Metabolic stability in human liver microsomes assessed as hepatic clearance at 1 uM measured after 5 to 45 mins in presence of NADPH by LC-MS/MS analysis. Type of series: ADME, Microsome. Conditions: time 5-45 min.
The next series addresses T1, Cytochrome P450 2B6 (Homo sapiens, UniProt P20813).
T1 sequence (P20813 whole entry): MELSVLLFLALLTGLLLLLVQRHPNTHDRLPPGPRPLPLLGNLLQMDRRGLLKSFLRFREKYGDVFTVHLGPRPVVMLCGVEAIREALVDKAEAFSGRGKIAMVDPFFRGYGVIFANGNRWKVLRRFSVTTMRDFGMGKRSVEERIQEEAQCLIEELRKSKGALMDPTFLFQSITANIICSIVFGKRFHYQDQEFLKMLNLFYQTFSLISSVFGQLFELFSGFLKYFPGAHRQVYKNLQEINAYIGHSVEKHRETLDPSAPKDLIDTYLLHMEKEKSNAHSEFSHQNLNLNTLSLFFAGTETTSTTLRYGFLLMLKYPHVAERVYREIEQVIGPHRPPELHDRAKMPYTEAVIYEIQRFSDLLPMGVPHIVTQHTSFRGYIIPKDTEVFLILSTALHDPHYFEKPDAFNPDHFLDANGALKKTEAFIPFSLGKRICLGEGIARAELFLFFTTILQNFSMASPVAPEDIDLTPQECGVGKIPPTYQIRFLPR
Description: Inhibition of CYP2B6 in human liver microsomes incubated for 10 mins in presence of NADPH by LC-MS/MS analysis. Format: ADME, Microsome. (In general: Liver microsomes are vesicles of endoplasmic reticulum, rich in cytochrome P450 enzymes.)

For a further series, the target named is T2, Cytochrome P450 2C8 (Homo sapiens, UniProt P10632).
T2 sequence (P10632 whole entry): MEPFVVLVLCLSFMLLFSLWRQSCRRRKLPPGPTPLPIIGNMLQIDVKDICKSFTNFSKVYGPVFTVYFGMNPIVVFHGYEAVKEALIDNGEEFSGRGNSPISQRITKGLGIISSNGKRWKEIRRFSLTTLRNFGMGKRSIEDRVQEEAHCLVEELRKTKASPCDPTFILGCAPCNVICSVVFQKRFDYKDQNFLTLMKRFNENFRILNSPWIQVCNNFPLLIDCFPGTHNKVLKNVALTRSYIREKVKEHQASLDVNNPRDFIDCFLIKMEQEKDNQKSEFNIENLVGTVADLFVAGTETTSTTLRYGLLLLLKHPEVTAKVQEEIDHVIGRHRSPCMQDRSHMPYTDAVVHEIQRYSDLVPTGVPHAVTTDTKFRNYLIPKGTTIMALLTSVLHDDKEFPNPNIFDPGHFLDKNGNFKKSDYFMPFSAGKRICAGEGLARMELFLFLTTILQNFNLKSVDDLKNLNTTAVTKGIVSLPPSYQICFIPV
Description: Inhibition of CYP2C8 in human liver microsomes incubated for 20 mins in presence of NADPH by LC-MS/MS analysis. Type of series: ADME, Microsome.

The nature of series [3]: Agonist activity at dog GLP-1R expressed in HEK293 cells by cAMP accumulation assay. Conditions: Canis lupus familiaris. For orientation: Changes in cAMP serve as a functional read-out for many G protein-coupled receptors.
Series [4] is described as follows: Cmax in Sprague-Dawley rat at 10 mg/kg, po measured up to 24 hrs by LC-MS/MS analysis. Type of series: ADME, organism-based. As to conditions: in vivo.
The nature of series [5]: AUC last in Sprague-Dawley rat at 10 mg/kg, po measured up to 24 hrs by LC-MS/MS analysis. Format: ADME, organism-based. As to conditions: in vivo.
The target in series [6] is CB2 (cannabinoid receptor 2) (Homo sapiens, UniProt P34972). The experiment in a line: Inhibition of CB2 (unknown origin) at 10 uM relative to control. Format: toxicity.
CB2 (cannabinoid receptor 2), sequence (P34972 whole entry): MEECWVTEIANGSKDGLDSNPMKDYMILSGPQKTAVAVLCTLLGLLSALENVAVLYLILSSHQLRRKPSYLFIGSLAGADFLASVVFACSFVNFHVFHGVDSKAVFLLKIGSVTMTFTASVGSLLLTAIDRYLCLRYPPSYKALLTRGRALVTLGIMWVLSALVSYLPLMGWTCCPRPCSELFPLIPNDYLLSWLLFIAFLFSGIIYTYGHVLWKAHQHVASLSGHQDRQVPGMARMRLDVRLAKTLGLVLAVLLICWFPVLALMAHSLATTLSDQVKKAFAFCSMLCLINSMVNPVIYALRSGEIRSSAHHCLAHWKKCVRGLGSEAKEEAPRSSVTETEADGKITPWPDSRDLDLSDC
The nature of series [7]: Tmax in Cynomolgus monkey at 5 mg/kg, po measured up to 48 hrs by LC-MS/MS analysis. Format: ADME, organism-based, Macaca fascicularis. Conditions: in vivo.
A short description of series [8]: Oral bioavailability in Cynomolgus monkey at 5 mg/kg measured up to 48 hrs by LC-MS/MS analysis. Type of series: ADME, organism-based, Macaca fascicularis. As to conditions: in vivo.

Each structure is given as a SMILES string.

hERG (KCNH2), sequence (Q12809 whole entry): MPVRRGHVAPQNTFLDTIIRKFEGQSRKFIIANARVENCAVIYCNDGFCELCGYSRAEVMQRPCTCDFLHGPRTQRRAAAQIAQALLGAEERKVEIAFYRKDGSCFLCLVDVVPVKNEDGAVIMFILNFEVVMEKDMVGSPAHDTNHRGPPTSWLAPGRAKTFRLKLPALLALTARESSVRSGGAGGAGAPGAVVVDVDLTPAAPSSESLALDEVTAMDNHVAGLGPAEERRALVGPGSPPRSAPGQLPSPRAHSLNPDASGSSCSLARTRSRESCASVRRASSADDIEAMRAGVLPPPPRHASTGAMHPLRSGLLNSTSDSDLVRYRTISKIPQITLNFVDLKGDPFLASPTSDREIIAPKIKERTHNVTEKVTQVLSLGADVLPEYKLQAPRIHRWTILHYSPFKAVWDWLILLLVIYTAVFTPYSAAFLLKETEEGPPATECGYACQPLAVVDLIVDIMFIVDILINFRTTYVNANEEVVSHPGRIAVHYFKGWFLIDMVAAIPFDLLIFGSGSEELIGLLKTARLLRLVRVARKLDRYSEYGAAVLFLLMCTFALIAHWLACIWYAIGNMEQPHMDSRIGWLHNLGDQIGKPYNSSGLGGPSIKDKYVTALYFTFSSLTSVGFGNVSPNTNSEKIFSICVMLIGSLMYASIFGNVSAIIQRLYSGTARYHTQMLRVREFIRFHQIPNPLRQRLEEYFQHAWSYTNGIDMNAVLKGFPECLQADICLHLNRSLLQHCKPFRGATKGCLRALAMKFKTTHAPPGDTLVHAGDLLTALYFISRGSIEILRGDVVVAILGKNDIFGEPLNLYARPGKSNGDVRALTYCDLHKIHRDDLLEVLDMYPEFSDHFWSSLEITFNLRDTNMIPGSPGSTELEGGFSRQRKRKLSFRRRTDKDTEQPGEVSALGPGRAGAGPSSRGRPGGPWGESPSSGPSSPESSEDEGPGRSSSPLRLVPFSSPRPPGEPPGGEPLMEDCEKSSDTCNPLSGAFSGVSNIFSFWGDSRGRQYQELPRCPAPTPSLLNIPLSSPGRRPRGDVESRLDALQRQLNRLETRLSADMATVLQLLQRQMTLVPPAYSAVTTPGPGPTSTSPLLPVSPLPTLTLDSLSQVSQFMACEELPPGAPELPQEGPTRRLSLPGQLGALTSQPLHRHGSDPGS

Consider `O=C(O)c1ccc2nc(Cc3ccc(-c4ccc(F)c(OCc5ccc(Cl)c6ccoc56)n4)cc3F)n(C[C@@H]3CCO3)c2c1`, for which the EC50 in [1] was 0.00132 µM; in series [3], more than 30 µM. This molecule returned an inhibition at 30 µM on hERG (KCNH2) of less than 50%. The CLhep predicted at 1 µM in series [2] is 8.09 mL/min/kg. In addition, the IC50 is more than 30 µM at Cytochrome P450 2B6 and 28.3 µM at Cytochrome P450 2C8. The Cmax in [4] worked out at 347 ng/mL. In series [5], this molecule registered an exposure AUC(0-t) at 24 h of 2960 ng·h/mL. Besides, at 10 µM the inhibition in series [6] was 74.4%. The Tmax in [7] came out at 2.5 h. The bioavailability in series [8] amounted to 13.9%.
